# Laboratory results published in ChEMBL document CHEMBL1201862, “PubChem BioAssay data set” (2004).
#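 Grown in 96-well plates, cells were treated for 48 hours with each compound at five concentrations. Insufficient inhibition: endpoint recorded as highest concentration tested. GI50: concentration for 50% inhibition of growth.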 The source made the active and inactive calls. Cut-off read from the data, not from the text of the source: active = GI50 up to about 1.1 µM and inactive = higher.
# Legend:
# Assay in all cases: growth of human tumour cells (NCI), 48 h
# [1] = test system: OVCAR-5
# [2] = test system: SNB-19
# [3] = test system: EKVX
# [4] = test system: OVCAR-4
# [5] = test system: HCT-116
# [6] = test system: TK-10
# [7] = test system: LXFL 529
# [8] = test system: HCC 2998
# [9] = test system: M19-MEL
# [10] = test system: RXF 393
# [11] = test system: NCI-H226
# [12] = test system: OVCAR-3
# [13] = test system: XF498
# [14] = test system: SK-MEL-2
# [15] = test system: SF-268
# [16] = test system: HT-29
# [17] = test system: NCI-H460
# [18] = test system: UACC-257
# [19] = test system: SN12C
# [20] = test system: SNB-78
# [21] = test system: SNB-75
# [22] = test system: LOX IMVI
# [23] = test system: KM-20L2
# [24] = test system: UACC-62
# [25] = test system: SF-539
# [26] = test system: HOP-62
# [27] = test system: SK-OV-3
# [28] = test system: UO-31
# [29] = test system: U-251
# [30] = test system: SK-MEL-28
# [31] = test system: ACHN
# [32] = test system: KM12
# [33] = test system: Malme-3M
# [34] = test system: DMS-114
# [35] = test system: DLD-1
# [36] = test system: NCI-H23
# [37] = test system: M14
# [38] = test system: HCT-15
# [39] = test system: 786-0
# [40] = test system: COLO 205
# [41] = test system: A549
# [42] = test system: K562
# [43] = test system: HL-60
# [44] = test system: MOLT-4
# [45] = test system: OVCAR-8
# [46] = test system: IGROV-1
# [47] = test system: A498
# [48] = test system: SR
# [49] = test system: SW-620
# [50] = test system: CAKI-1
# [51] = test system: RPMI-8226
# [52] = test system: SK-MEL-5
# [53] = test system: NCI-H522
# [54] = test system: DMS-273
# [55] = test system: CCRF-CEM
# [56] = test system: HOP-92
# [57] = test system: HOP-18
# [58] = test system: SF-295
smiles,measurement,setting,value
CC(C)C(C)C(C)(C)P(C)(C)=O (stereo not drawn),GI50,[1],> 100 µM (inactive)
same,GI50,[2],> 100 µM (inactive)
same,GI50,[3],> 100 µM (inactive)
same,GI50,[4],> 100 µM (inactive)
same,GI50,[5],> 100 µM (inactive)
same,GI50,[6],> 100 µM (inactive)
same,GI50,[7],> 100 µM (inactive)
same,GI50,[8],> 100 µM (inactive)
same,GI50,[9],> 100 µM (inactive)
same,GI50,[10],> 100 µM (inactive)
same,GI50,[11],> 100 µM (inactive)
same,GI50,[12],> 100 µM (inactive)
same,GI50,[13],> 100 µM (inactive)
same,GI50,[14],> 100 µM (inactive)
same,GI50,[15],> 100 µM (inactive)
same,GI50,[16],> 100 µM (inactive)
same,GI50,[17],> 100 µM (inactive)
same,GI50,[18],> 100 µM (inactive)
same,GI50,[19],> 100 µM (inactive)
same,GI50,[20],> 100 µM (inactive)
same,GI50,[21],> 100 µM (inactive)
same,GI50,[22],> 100 µM (inactive)
same,GI50,[23],> 100 µM (inactive)
same,GI50,[24],> 100 µM (inactive)
same,GI50,[25],> 100 µM (inactive)
same,GI50,[26],> 100 µM (inactive)
same,GI50,[27],> 100 µM (inactive)
same,GI50,[28],> 100 µM (inactive)
same,GI50,[29],> 100 µM (inactive)
same,GI50,[30],> 100 µM (inactive)
same,GI50,[31],> 100 µM (inactive)
same,GI50,[32],> 100 µM (inactive)
same,GI50,[33],> 100 µM (inactive)
same,GI50,[34],> 100 µM (inactive)
same,GI50,[35],> 100 µM (inactive)
same,GI50,[36],> 100 µM (inactive)
same,GI50,[37],> 100 µM (inactive)
same,GI50,[38],> 100 µM
Cc1ccc(S(=O)(=O)C(C#N)c2nc3ccccc3nc2N2CCOCC2)cc1 (stereo not drawn),GI50,[1],> 100 µM (inactive)
same,GI50,[2],28.6 µM (inactive)
same,GI50,[39],30.2 µM (inactive)
same,GI50,[3],> 100 µM (inactive)
same,GI50,[40],30.3 µM (inactive)
same,GI50,[4],20.5 µM (inactive)
same,GI50,[41],76 µM (inactive)
same,GI50,[42],> 10 µM (inactive)
same,GI50,[43],> 10 µM (inactive)
same,GI50,[5],18.2 µM (inactive)
same,GI50,[6],56.6 µM (inactive)
same,GI50,[7],27.9 µM (inactive)
same,GI50,[8],14.1 µM (inactive)
same,GI50,[9],26.7 µM (inactive)
same,GI50,[11],> 100 µM (inactive)
same,GI50,[44],19.2 µM (inactive)
same,GI50,[12],33.8 µM (inactive)
same,GI50,[13],24.3 µM (inactive)
same,GI50,[14],33.1 µM (inactive)
same,GI50,[15],28.6 µM (inactive)
same,GI50,[17],17.9 µM (inactive)
same,GI50,[18],33.8 µM (inactive)
same,GI50,[45],> 10 µM (inactive)
same,GI50,[46],13.6 µM (inactive)
same,GI50,[19],28.2 µM (inactive)
same,GI50,[20],3.09 µM (inactive)
same,GI50,[47],53.7 µM (inactive)
same,GI50,[21],22.8 µM (inactive)
same,GI50,[48],28.1 µM (inactive)
same,GI50,[22],16.6 µM (inactive)
same,GI50,[23],33.4 µM (inactive)
same,GI50,[24],12.4 µM (inactive)
same,GI50,[25],38.8 µM (inactive)
same,GI50,[26],20.5 µM (inactive)
same,GI50,[27],61.5 µM (inactive)
same,GI50,[49],26.9 µM (inactive)
same,GI50,[50],25.6 µM (inactive)
same,GI50,[28],32.1 µM (inactive)
same,GI50,[51],22 µM (inactive)
same,GI50,[29],18.7 µM (inactive)
same,GI50,[30],23.4 µM (inactive)
same,GI50,[31],30.3 µM (inactive)
same,GI50,[32],18.3 µM (inactive)
same,GI50,[33],27.5 µM (inactive)
same,GI50,[34],22.5 µM (inactive)
same,GI50,[52],48.8 µM (inactive)
same,GI50,[35],27.3 µM (inactive)
same,GI50,[53],18.7 µM (inactive)
same,GI50,[54],17.8 µM (inactive)
same,GI50,[55],13.9 µM (inactive)
same,GI50,[36],21.8 µM (inactive)
same,GI50,[37],44.2 µM (inactive)
same,GI50,[38],31 µM
O=Cc1c[nH]c2c(=O)[nH]cnc12,GI50,[2],> 100 µM (inactive)
same,GI50,[39],> 100 µM (inactive)
same,GI50,[3],> 100 µM (inactive)
same,GI50,[40],> 100 µM (inactive)
same,GI50,[41],> 100 µM (inactive)
same,GI50,[42],> 100 µM (inactive)
same,GI50,[43],> 100 µM (inactive)
same,GI50,[5],> 100 µM (inactive)
same,GI50,[6],> 100 µM (inactive)
same,GI50,[7],> 100 µM (inactive)
same,GI50,[8],> 100 µM (inactive)
same,GI50,[56],> 100 µM (inactive)
same,GI50,[9],> 100 µM (inactive)
same,GI50,[10],> 100 µM (inactive)
same,GI50,[44],> 100 µM (inactive)
same,GI50,[12],> 100 µM (inactive)
same,GI50,[14],> 100 µM (inactive)
same,GI50,[15],> 100 µM (inactive)
same,GI50,[16],> 100 µM (inactive)
same,GI50,[18],> 100 µM (inactive)
same,GI50,[45],> 100 µM (inactive)
same,GI50,[46],> 100 µM (inactive)
same,GI50,[19],> 100 µM (inactive)
same,GI50,[20],> 100 µM (inactive)
same,GI50,[21],> 100 µM (inactive)
same,GI50,[48],> 100 µM (inactive)
same,GI50,[22],> 100 µM (inactive)
same,GI50,[24],> 100 µM (inactive)
same,GI50,[26],> 100 µM (inactive)
same,GI50,[27],> 100 µM (inactive)
same,GI50,[49],> 100 µM (inactive)
same,GI50,[50],> 100 µM (inactive)
same,GI50,[28],> 100 µM (inactive)
same,GI50,[51],> 100 µM (inactive)
same,GI50,[30],> 100 µM (inactive)
same,GI50,[31],> 100 µM (inactive)
same,GI50,[32],> 100 µM (inactive)
same,GI50,[33],> 100 µM (inactive)
same,GI50,[34],> 100 µM (inactive)
same,GI50,[57],> 100 µM (inactive)
same,GI50,[52],> 100 µM (inactive)
same,GI50,[35],> 100 µM (inactive)
same,GI50,[53],> 100 µM (inactive)
same,GI50,[55],> 100 µM (inactive)
same,GI50,[36],> 100 µM (inactive)
same,GI50,[37],> 100 µM (inactive)
same,GI50,[58],> 100 µM (inactive)
same,GI50,[38],> 100 µM
O=C1OCCC1C(O)C1c2ccccc2-c2ccccc21 (stereo not drawn),GI50,[1],> 100 µM (inactive)
same,GI50,[2],> 100 µM (inactive)
same,GI50,[39],> 100 µM (inactive)
same,GI50,[3],> 100 µM (inactive)
same,GI50,[40],> 100 µM (inactive)
same,GI50,[4],> 100 µM (inactive)
same,GI50,[41],> 100 µM (inactive)
same,GI50,[42],> 100 µM (inactive)
same,GI50,[43],> 100 µM (inactive)
same,GI50,[5],> 100 µM (inactive)
same,GI50,[6],> 100 µM (inactive)
same,GI50,[7],> 100 µM (inactive)
same,GI50,[56],> 100 µM (inactive)
same,GI50,[9],> 100 µM (inactive)
same,GI50,[11],> 100 µM (inactive)
same,GI50,[44],> 100 µM (inactive)
same,GI50,[12],> 100 µM (inactive)
same,GI50,[13],17.8 µM (inactive)
same,GI50,[14],> 100 µM (inactive)
same,GI50,[15],> 100 µM (inactive)
same,GI50,[16],> 100 µM (inactive)
same,GI50,[17],> 100 µM (inactive)
same,GI50,[18],> 100 µM (inactive)
same,GI50,[45],> 100 µM (inactive)
same,GI50,[46],> 100 µM (inactive)
same,GI50,[19],> 100 µM (inactive)
same,GI50,[20],> 100 µM (inactive)
same,GI50,[47],> 100 µM (inactive)
same,GI50,[21],> 100 µM (inactive)
same,GI50,[48],> 100 µM (inactive)
same,GI50,[24],> 100 µM (inactive)
same,GI50,[26],> 100 µM (inactive)
same,GI50,[27],> 100 µM (inactive)
same,GI50,[49],> 100 µM (inactive)
same,GI50,[50],> 100 µM (inactive)
same,GI50,[28],> 100 µM (inactive)
same,GI50,[51],> 100 µM (inactive)
same,GI50,[29],> 100 µM (inactive)
same,GI50,[30],> 100 µM (inactive)
same,GI50,[31],> 100 µM (inactive)
same,GI50,[32],> 100 µM (inactive)
same,GI50,[33],> 100 µM (inactive)
same,GI50,[34],> 100 µM (inactive)
same,GI50,[35],> 100 µM (inactive)
same,GI50,[53],> 100 µM (inactive)
same,GI50,[55],> 100 µM (inactive)
same,GI50,[36],> 100 µM (inactive)
same,GI50,[37],> 100 µM (inactive)
same,GI50,[58],> 100 µM (inactive)
